The values below come from patent US10172356B2, “Bipyridine compound and use of same for noxious arthropod control” (Sumitomo Chemical Company, Limited, priority 2015, dated 2019).

What all share (assay type): in vivo
The test system of experiment [1] is western corn rootworm (Diabrotica virgifera virgifera). Nature of the experiment: Test Example 10: western corn rootworm on corn seedling immersed in diluted solution, 500 ppm. Particulars: 120 h, corn seedling immersed 30 seconds, second instar larvae, after 5 days, 25° C., read-out: Mortality of insects. The procedure:
The compound S-1 was mixed with a mixed solution of acetone and polyoxyethylene sorbitan mono-cocoate (acetone and polyoxyethylene sorbitan mono-cocoate=95 : 5 (weight ratio)) a ratio of 50 μL of the mixed solution per 1 mg of the compound S-1, and the resulting mixtures were then diluted with ion-exchange water containing 0.03% by volume of shindain (registered trademark, manufactured by Sumitomo Chemical Co. Ltd.) so that the concentration of the compound S-1 was set to 500 ppm to prepare the diluted solution of the compound S-1.
Corns (Xea mays) were sown on a tray overlaid with damped KimWipes (registered trademark). After corns were grown for 5 days, the entire seedling of the corn was immersed into the diluted solution for 30 seconds. After the seedling was dried, two grains of the seedling were installed in a plastic petri dish ([…]), and ten heads of western corn rootworm (Diabrotica virgifera virgifera) at the second instar larval stages were released onto the petri dish and the petri dish was covered with the lid. The petri dish was held at 25° C. and after 5 days, the number of died insects was counted and the mortality of insects was calculated by the following equation. Mortality of insects (%)=(Number of dead insects/Number of tested insects)×100
Similarly, using the compounds S-2, S-3, S-7, S-10, O-1 and O-2 instead of the compound S-1, the tests were carried out.

Experiment [2] has as its system cabbage moth (Plutella xylostella). Put plainly: Test Example 7: cabbage moth on sprayed cabbage, 500 ppm. The following applies: 120 h, 20 mL/cup sprayed on cabbage, second instar larvae, after 5 days, 25° C., read-out: Mortality of insects. As for the experimental part:
Each of the compounds S-1, S-5, S-7, S-8, S-9, S-10, O-1, and O-2 was made to a formulation according to a similar method to that described in the Formulation example 5 and was then diluted with water so that each of the active ingredient concentration was set to 500 ppm to prepare each of the diluted solution.
A cabbage in the third leaf stage was planted in a polyethylene cup, and thereto was sprayed the diluted solution in ratio 20 mL/cup. After the above-mentioned dilutions were dried, and the stem and leaf thereof was cut and then was stalled in a 50 mL cup, and five heads of cabbage moth (Plutella xylostella) at the second instar larval stages were released into the cup and the cup was covered with the lid. The cup was held at 25° C. and after 5 days, the number of died insects was counted and the mortality of insects was calculated by the following equation. Mortality of insects (%)=(Number of dead insects/Number of tested insects)×100

Experiment [3] concerns cotton aphid (Aphis gossypii). Nature of the experiment: Comparative Experiment 3 (method of Test Example 3: cotton aphid, irrigation, 200 ppm). Particulars: cotton aphid on cucumber seedling, irrigation into plant foot, 200 ppm (method of Test Example 3). As for the experimental part:
Cucumber seedling (on the developmental stage of the second true leaf) was planted in a polyethylene cup, and the diluted solutions 5 mL were irrigated into the plant foot, and the plants were held at 25° C. in a greenhouse for 7 days. Approximately 30 heads of cotton aphid (Aphis gossypii) (all stages of life) were inoculated onto the cucumber leaves and the plants were held in a greenhouse for additional 6 days, and then the number of the surviving […] parasitic on the cucumber leaves was examined and the controlling value was calculated by the following equation. Controlling value (%)={1-(Cb×Tai)/(Cai×Tb)}×100 wherein the symbols in the formula represent the following descriptions. Cb: Number of the insects before treatment in untreated area; Cai: Number of the surviving parasitic insects at the time of the investigation in untreated area; Tb: Number of the insects before treatment in treated area; Tai: Number of the surviving parasitic insects at the time of the investigation in treated area; Here the “untreated area” represents an area that was sprayed by a diluted solution of the formulation described in the Formulation Example 5 without the compound A with water in the same amount as that of the treated area. […] Here A represents 100%, B represents 90 to 99%, C represents 60 to 89%, D represents 30 to 59% and represents 0 to 29% as a control value.

In experiment [4] the test system is brown planthopper (Nilaparvata lugens). Nature of the experiment: Comparative Experiment 5 (method of Test Example 5: brown planthopper, spray, 200 ppm). Particulars: brown planthopper on rice seedling, 200 ppm (method of Test Example 5). The procedure:
Rice seedling (on the developmental stage of the second true leaf) was planted in a polyethylene cup, and the diluted solutions 10 mL were sprayed. After air drying, 20 heads of 3rd to 4th instar larvae of brown planthopper (Nilaparvata lugens) were released onto the rice leaves and the plants were held at 25° C. in a greenhouse. After 6 days, the number of the surviving insects that were parasitic on the leaves of the rice was examined and the controlling value was calculated by the following equation. Controlling value (%)={1-(Cb×Tai)/(Cai×Tb)}×100 wherein the symbols in the formula represent the following descriptions. Cb: Number of the insects before treatment in untreated area; Cai: Number of the surviving parasitic insects at the time of the investigation in untreated area; Tb: Number of the insects before treatment in treated area; Tai: Number of the surviving parasitic insects at the time of the investigation in treated area; Here the “untreated area” represents an area that was sprayed by a diluted solution of the formulation described in the Formulation Example 5 without the compound A with water in the same amount as that of the treated area. […] Here A represents 100%, B represents 90 to 99%, C represents 60 to 89%, D represents 30 to 59% and represents 0 to 29% as a control value.

Experiment [5] deals with cotton aphid (Aphis gossypii). Nature of the experiment: Comparative Experiment 2 (method of Test Example 2: cotton aphid, spray, 200 ppm). The following applies: cotton aphid on cucumber seedling, 200 ppm (method of Test Example 2). As for the experimental part:
Cucumber seedling (on the developmental stage of the first true leaf) was planted in a polyethylene cup and 30 heads of cotton aphid (Aphis gossypii) (all stages of life) were released onto the leaves of the cucumber and allowed to stand for 1 day. The diluted solutions 20 mL were sprayed into the seedling. Cucumber (cv; Sagami-hanjiro-fushinari) was grown in a polyethylene cup until the first true leaf was developed. Approximately 30 heads of cotton aphid (Aphis gossypii) (including the adults and the larvae) was released onto the leaves of the […] and next day, the above-mentioned testing drug dilutions 20 mL were sprayed. After 6 days, the number of the surviving insects that were parasitic on the leaves of the cucumber was examined and the controlling value was calculated by the following equation. Controlling value (%)={1-(Cb×Tai)/(Cai×Tb)}×100 wherein the symbols in the formula represent the following descriptions. Cb: Number of the insects before treatment in untreated area; Cai: Number of the surviving parasitic insects at the time of the investigation in untreated area; Tb: Number of the insects before treatment in treated area; Tai: Number of the surviving parasitic insects at the time of the investigation in treated area; Here the “untreated area” represents an area that was sprayed by a diluted solution of the formulation described in the Formulation Example 5 without the compound A with water in the same amount as that of the treated area. […] Here A represents 100%, B represents 90 to 99%, C represents 60 to 89%, D represents 30 to 59% and represents 0 to 29% as a control value.

The test system of experiment [6] is cabbage moth (Plutella xylostella). Nature of the experiment: Test Example 8: cabbage moth on sprayed cabbage, 200 ppm. The following applies: 120 h, 20 mL/cup sprayed on cabbage, second instar larvae, after 5 days, 25° C., read-out: Mortality of insects. The procedure: Each of the compounds S-7, S-8, S-9, S-10, and O-2 was made to a formulation according to a similar method to that described in the Formulation example 5 and was then diluted with water so that each of the active ingredient concentration was set to 200 ppm to prepare each of the diluted solution.
A cabbage in the third leaf stage was planted in a polyethylene cup, and thereto was sprayed the diluted solution in a ratio of 20 mL/cup. After the above-mentioned dilutions were dried, and the stem and leaf thereof was cut and then was installed in a 50 mL cup, and five heads of cabbage moth (Plutella xylostella) at the second instar larval stages were released into the cup and the cup was covered with the lid. The cup was held at 25° C. and after 5 days, the number of died insects was counted and the mortality insects was calculated by the following equation. Mortality of insects (%)=(Number of dead insects/Number of tested insects)×100

Experiment [7] relates to female adult housefly (Musca domestica). Nature of the experiment: whole plant or invertebrate. The following applies: 24 h, read-out: Mortality of insects. As for the experimental part: Each of the compounds S-2, S-3, S-7, S-8, and N-1 was made to a formulation according to a similar method to that described in the Formulation example 5 and was then diluted with water so that each of the active ingredient concentration was set to 500 ppm to prepare each of the diluted solution.
The bottom of the polyethylene cup having 5.5 cm diameter was matted with the same size of a filter paper, and 0.7 mL of the diluted solution was added dropwise to the filter paper and 30 mg sucrose as bait was placed in the cup uniformly. Ten (10) heads of female adult housefly (Musca domestica) were released into the polyethylene cup and the cup was covered with the lid. After 24 hours, the life and death of housefly was examined and the number of died insects was counted and the mortality of insects was calculated by the following equation. Mortality of insects (%)=(Number of dead insects/Number of tested insects)×100

On to `CCS(=O)(=O)c1cccnc1-c1ccc(SCC(F)(F)C(F)(F)F)cn1` [Compound S-4], for which, in experiment [1], the mortality at 500 ppm is no less than 80%.

Consider `CCS(=O)(=O)c1cccnc1-c1ccc(OS(=O)(=O)C(F)(F)F)cn1` [Compound O-1], for which the mortality at 500 ppm in experiment [1] and in experiment [2] was no less than 80% throughout.

As for `CCS(=O)(=O)c1cccnc1-c1ccc([S+]([O-])C(F)(F)F)cn1` (centres unmarked) [Compound S-8], in experiment [3], the “control value, Comparative Experiment 3” value was “A (A represents 100%)”. For the same molecule, in experiment [4], the “control value, Comparative Experiment 5” value is recorded as “A (A represents 100%)”. The “control value, Comparative Experiment 2” value in experiment [5] is recorded as “A (A represents 100%)”.

On to `FC(F)(F)CSc1ccc(-c2ccc(C(F)(F)F)cc2)nc1` [Compound V-7, reference compound], for which, in experiment [3], the “control value, Comparative Experiment 3” value was “E (represents 0 to 29% as a control value)”. Besides, the “control value, Comparative Experiment 5” value in experiment [4] is “D (D represents 30 to 59%)”. In experiment [5], the “control value, Comparative Experiment 2” value is listed as “E (represents 0 to 29% as a control value)”.

For the molecule `CCS(=O)(=O)c1cccnc1-c1ccc(SCC(F)(F)F)cn1` [Compound S-1], the mortality at 500 ppm in experiment [2] was no less than 80%. In addition, the “control value, Comparative Experiment 3” value in experiment [3] is “B (B represents 90 to 99%)”. Also, the “control value, Comparative Experiment 5” value in experiment [4] was “A (A represents 100%)”. Moreover, in experiment [5], the “control value, Comparative Experiment 2” value is on record as “A (A represents 100%)”.

Consider `FC(F)(F)Sc1ccc(-c2ccc(C(F)(F)F)cc2Cl)nc1` [Compound V-11, reference compound], for which the “control value, Comparative Experiment 3” value in experiment [3] is on record as “E (represents 0 to 29% as a control value)”. Moreover, the “control value, Comparative Experiment 5” value in experiment [4] is given as “E (represents 0 to 29% as a control value)”. Moreover, in experiment [5], the “control value, Comparative Experiment 2” value is recorded as “E (represents 0 to 29% as a control value)”.

As to `CCS(=O)(=O)c1cccnc1-c1ccc(OS(=O)(=O)CC(F)(F)F)cn1` [Compound O-2], the mortality at 500 ppm in experiment [1] and in experiment [2] was no less than 80% in each case. Further, in experiment [6], the mortality at 200 ppm was no less than 80%.

As for `[O-][S+](c1ccc(-c2ccc(C(F)(F)F)cc2Cl)nc1)C(F)(F)F` (centres unmarked) [Compound V-12, reference compound], the “control value, Comparative Experiment 3” value in experiment [3] is given as “E (represents 0 to 29% as a control value)”. Also, the “control value, Comparative Experiment 5” value in experiment [4] was “E (represents 0 to 29% as a control value)”. In addition, the “control value, Comparative Experiment 2” value in experiment [5] is on record as “E (represents 0 to 29% as a control value)”.

On to `CCS(=O)(=O)c1cccnc1-c1ccc(SC(F)(F)F)cn1` [Compound S-7], for which the mortality at 500 ppm in experiment [1] was no less than 80%; in experiment [2], no less than 80%; in experiment [7], 100%. Moreover, in experiment [6], the mortality at 200 ppm was no less than 80%. Moreover, the “control value, Comparative Experiment 3” value in experiment [3] is reported as “A (A represents 100%)”. In addition, in experiment [4], the “control value, Comparative Experiment 5” value is on record as “A (A represents 100%)”. Besides, in experiment [5], the “control value, Comparative Experiment 2” value is “A (A represents 100%)”.
